Source: patent US10836763B2, “5 to 7 membered heterocyclic amides as JAK inhibitors” (priority 2018, dated 2020)

Columns and labels:
[1] = target: JAK1 (Homo sapiens (Human), UniProt P23458); assay: Co-crystal structure with JAK1; conditions: resolution of 2.28 Å
Description: A co-crystal structure was obtained of compound D-1 bound to human JAK1 at a resolution of 2.28 Å. […] Seven specific hydrogen bonding interactions were identified based upon a distance of 3.5 Å or less between donor and acceptor atoms. Of particular note, a hydrogen bonding interaction was identified between the carbonyl of the exocyclic amide of compound D-1 and the sidechain of Arg879 of JAK1. A similar interaction can be expected for the compounds of the invention.

[2] = target: JAK2 (Homo sapiens (Human), UniProt O60674); assay: Biochemical JAK kinase assay (LanthaScreen), JAK2
Experimental: (§1) Assay 1: Biochemical JAK Kinase Assays
(§2) A panel of four LanthaScreen JAK biochemical assays (JAK1, 2, 3 and Tyk2) were carried in a common kinase reaction buffer (50 mM HEPES, pH 7.5, 0.01% Brij-35, 10 mM MgCl2, and 1 mM EGTA). Recombinant GST-tagged JAK enzymes and a GFP-tagged STAT1 peptide substrate were obtained from Life Technologies.
(§3) Serially diluted compounds were pre-incubated with each of the four JAK enzymes and the substrate in white 384-well microplates (Corning) at ambient temperature for 1 h. ATP was subsequently added to initiate the kinase reactions in 10 μL total volume, with 1% DMSO. […] Kinase reactions were allowed to proceed for 1 hour at ambient temperature before a 10 μL preparation of EDTA (10 mM final concentration) and Tb-anti-pSTAT1 (pTyr701) antibody (Life Technologies, 2 nM final concentration) in TR-FRET dilution buffer (Life Technologies) was added. The plates were allowed to incubate at ambient temperature for 1 h before being read on the EnVision reader (Perkin Elmer). Emission ratio signals (520 nm/495 nm) were recorded and utilized to calculate the percent inhibition values based on DMSO and background controls.
(§4) For dose-response analysis, percent inhibition data were plotted vs. compound concentrations, and IC50 values were determined from a 4-parameter robust fit model with the Prism software (GraphPad Software). Results were expressed as pIC50 (negative logarithm of IC50) and subsequently converted to pKi (negative logarithm of dissociation constant, Ki) using the Cheng-Prusoff equation.

[3] = target: Tyk2 (Homo sapiens (Human), UniProt P29597); assay: Biochemical JAK kinase assay (LanthaScreen), Tyk2
Experimental: as §1, §2, §3, §4

[4] = Lung S9 metabolism; assay type: in vitro ADME, human; conditions: for Compound Remaining at 60 min (%) / microsomal CLint at 1 µM: human lung S9, 1 μM compound, 1 mg/mL S9 protein, NADPH and PAPS; for microsomal CLint at 1 µM: lung S9 fraction, pH 7.4, read-out: Clearance; for Sulfate Appearance: qualitative, O-sulfate metabolite peak in human lung S9
Experimental: Assay 5: Lung S9 Metabolism […] Lung S9 fractions from human (lot 1410245) were purchased from XenoTech LLC (Lenexa, Kans.). NADPH (Sigma Aldrich, N1630) and 3-phosphoadenosine 5-phosphosulfate (PAPS) (Sigma Aldrich, A1651) were purchased from Sigma Aldrich (St. Louis, Mo.). Acetonitrile and water were obtained from VWR (Radnor, Pa.) and were of HPLC grade or better. Raloxifene and formic acid was purchased from Sigma Aldrich (St. Louis, Mo.). Lung S9 incubations were performed in a water bath at 37° C. in a 96-well polypropylene plate. […] All samples were centrifuged at 2250 g for 10 minutes at 5° C. Supernatant (50 μL) was taken from the centrifuged samples and diluted into 100 μL HPLC water containing internal standard. […] Mobile Phase A consisted of Water+0.2% formic acid and Mobile Phase B consisted of acetonitrile+0.2% formic acid. Peak integration was accomplished using Gubbs GMSU software (Gubbs Inc., Alpharetta, Ga.). For each sample, peak area ratios were calculated by dividing the analyte peak area by the internal standard peak area. […] Determination of sulfate metabolite formation was made qualitatively by observation of early-eluting peak in the parent ion channel which, based on historical internal data, corresponded to the O-sulfate metabolite of each parent compound.

[5] = tested on: IL-2 stimulated STAT5 phosphorylation in Tall-1 human T cell line; assay: Inhibition of IL-2 stimulated pSTAT5 in Tall-1 T cells; assay type: cell-based; conditions: TALL-1, 0.5 h, IL-2 300 ng/mL, 30 min, pSTAT5 AlphaLisa, read-out: Tall-1 pIC50 (converted)
Experimental: Assay 2: Inhibition of IL-2 Stimulated pSTAT5 in Tall-1 T Cells
The potency of test compounds for inhibition of interleukin-2 (IL-2) stimulated STAT5 phosphorylation was measured in the Tall-1 human T cell line (DSMZ) using AlphaLisa.
Phosphorylated STAT5 was measured via the AlphaLISA SureFire Ultra pSTAT5 (Tyr694/699) kit (PerkinElmer).
Compounds were serially diluted in DMSO and dispensed acoustically to empty wells. Assay media (phenol red-free DMEM (Life Technologies) supplemented with 10% FBS (ATCC)) was dispensed (4 μL/well) and plates shaken at 900 rpm for 10 mins. Cells were seeded at 45,000 cells/well in assay media (4 μL/well), and incubated at 37° C., 5% CO2 for 1 hour, followed by the addition of IL-2 (R&D Systems; final concentration 300 ng/mL) in pre-warmed assay media (4 μL) for 30 minutes. […] The lysate was shaken at 900 rpm for 10 minutes at room temperature (RT). Phosphorylated STAT5 was measured via the pSTAT5 AlphaLisa kit (PerkinElmer). Freshly prepared acceptor bead mixture was dispensed onto lysate (5 μL) under green filtered <100 lux light. Plates were shaken at 900 rpm for 2 mins, briefly spun down, and incubated for 2 hrs at RT in the dark. Donor beads were dispensed (5 μL) under green filtered <100 lux light. Plates were shaken at 900 rpm for 2 minutes, briefly spun down, and incubated overnight at RT in the dark. Luminescence was measured with excitation at 689 nm and emission at 570 nm using an EnVision plate reader (PerkinElmer) under green filtered <100 lux light.
To determine the inhibitory potency of test compounds in response to IL-2, the average emission intensity of beads bound to pSTAT5 was measured in a human T cell line. IC50 values were determined from analysis of the inhibition curves of signal intensity versus compound concentration. Data are expressed as pIC50 (negative decadic logarithm IC50) values (mean±standard deviation).

[6] = tested on: TSLP-evoked TARC release in human peripheral blood mononuclear cells; assay: Inhibition of TSLP-evoked TARC release in human peripheral blood mononuclear cells; assay type: cell-based; conditions: PBMC from 3 to 5 donors, TSLP 10 ng/mL, 48 hours, TARC ELISA, read-out: pIC50 ± st. dev., inhibition of TSLP-evoked TARC release (converted)
Description: Assay 4: Inhibition of TSLP-Evoked TARC Release in Human Peripheral Blood Mononuclear Cells
Thymic stromal lymphopoietin (TSLP) and thymus and activation-regulated chemokine (TARC) are overexpressed in asthmatic airways, and correlate with disease severity. In the lungs, TSLP may be released by bronchial epithelial cells in response to allergens and viral infections. TSLP signals through an IL-7Rα/TSLPR heterodimer found in a broad range of tissues and cell types, including epithelial cells, endothelial cells, neutrophils, macrophages, and mast cells. The binding of TSLP to its receptor induces a conformational change that activates JAK1 and JAK2 to phosphorylate various transcription factors, including STAT3 and STAT5. In immune cells, this triggers a cascade of intracellular events that result in cell proliferation, anti-apoptosis, dendritic cell migration, and production of Th2 cytokines and chemokines. In peripheral blood mononuclear cells (PBMC), TSLP has a proinflammatory effect by activating myeloid dendritic cells to attract and stimulate T cells, a process mediated by the chemoattractant TARC.
The potencies of the test compounds were measured for inhibition of TARC release.
PBMC aliquots (previously isolated from whole blood and frozen in aliquots at −80° C.) from 3 to 5 donors were thawed at 37° C. and added dropwise to 40 mL pre-warmed, sterile-filtered, complete RPMI media in 50 mL Falcon tubes. Cells were pelleted and resuspended in complete media at 2.24×10^6 cells/mL. Cells were seeded at […] (190,000 cells) per well in a tissue culture treated 96-well flat bottom microplate. Cells were allowed to rest for 1 hour at 37° C. with 5% CO2.
Compounds were received as 10 mM stock solutions in DMSO. 3.7-fold serial dilutions were performed to generate 9 concentrations of test compound in DMSO at 300× the final assay test concentration. […] After the 1 hour rest period, 95 µL of 2× compound was added to each well of PBMC, for a final assay concentration range of 33.33 μM to […]. 95 μL of 0.2% DMSO in complete media was added to the untreated control wells. Cells were pre-treated with compound for 1 hour at 37° C. with 5% CO2 prior to stimulation.
Recombinant human TSLP protein was reconstituted at 10 μg/mL in sterile DPBS with 0.1% BSA and stored in aliquots at −20° C. Immediately prior to use, an aliquot was thawed and prepared at 20× the final assay concentration in complete media. 10 μL of 20×TSLP was added to each well of PBMC, for a final assay concentration of 10 ng/mL. 10 μL of complete media was added to the unstimulated control wells. Cells were stimulated in the presence of compound for 48 hours at 37° C. with 5% CO2.
Following stimulation, the cell culture supernatants were harvested and TARC levels were detected by enzyme-linked immunosorbent assay (ELISA), using Human CCL17/TARC Quantikine ELISA Kit (R&D Systems # DDN00) according to the manufacturer's instructions.
For dose response analysis, the log [test compound (M)] was plotted versus the percent response values for each donor, and IC50 values were determined using a nonlinear regression analysis with GraphPad Prism Software using the 4-parameter sigmoidal dose-response algorithm with variable slope. Data are expressed as mean pIC50 (negative decadic logarithm IC50) values calculated from pIC50 values of individual donors and rounded to one decimal place.

Sequence of Tyk2 (P29597 whole entry): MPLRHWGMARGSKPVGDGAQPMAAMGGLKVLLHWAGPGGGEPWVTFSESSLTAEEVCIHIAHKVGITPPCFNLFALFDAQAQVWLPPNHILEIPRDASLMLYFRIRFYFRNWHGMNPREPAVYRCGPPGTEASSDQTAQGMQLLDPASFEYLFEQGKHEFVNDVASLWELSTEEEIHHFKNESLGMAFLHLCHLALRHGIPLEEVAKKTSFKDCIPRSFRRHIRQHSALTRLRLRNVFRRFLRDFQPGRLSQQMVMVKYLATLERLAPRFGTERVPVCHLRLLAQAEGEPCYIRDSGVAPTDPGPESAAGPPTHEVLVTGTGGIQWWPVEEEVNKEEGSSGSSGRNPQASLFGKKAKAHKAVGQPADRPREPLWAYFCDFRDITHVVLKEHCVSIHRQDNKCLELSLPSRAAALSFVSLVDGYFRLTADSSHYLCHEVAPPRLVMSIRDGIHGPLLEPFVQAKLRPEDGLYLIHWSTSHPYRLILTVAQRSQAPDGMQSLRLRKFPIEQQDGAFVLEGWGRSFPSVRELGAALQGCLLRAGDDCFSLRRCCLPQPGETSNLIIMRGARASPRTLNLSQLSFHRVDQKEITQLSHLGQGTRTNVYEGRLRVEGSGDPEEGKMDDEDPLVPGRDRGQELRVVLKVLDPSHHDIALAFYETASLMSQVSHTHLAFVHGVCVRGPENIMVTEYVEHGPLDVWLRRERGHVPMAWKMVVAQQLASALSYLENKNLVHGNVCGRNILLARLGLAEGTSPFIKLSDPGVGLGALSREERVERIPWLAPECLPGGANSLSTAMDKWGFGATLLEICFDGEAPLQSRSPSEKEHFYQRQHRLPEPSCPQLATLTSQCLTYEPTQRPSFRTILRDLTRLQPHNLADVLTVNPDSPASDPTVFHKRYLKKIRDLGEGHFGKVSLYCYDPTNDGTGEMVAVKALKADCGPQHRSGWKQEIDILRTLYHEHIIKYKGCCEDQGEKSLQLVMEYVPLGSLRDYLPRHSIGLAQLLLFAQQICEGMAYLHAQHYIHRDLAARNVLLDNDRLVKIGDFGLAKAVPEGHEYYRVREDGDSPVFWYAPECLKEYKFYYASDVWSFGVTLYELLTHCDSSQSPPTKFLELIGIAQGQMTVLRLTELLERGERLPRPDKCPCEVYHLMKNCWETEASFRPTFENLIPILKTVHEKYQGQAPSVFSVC
Sequence of JAK2 (O60674 whole entry): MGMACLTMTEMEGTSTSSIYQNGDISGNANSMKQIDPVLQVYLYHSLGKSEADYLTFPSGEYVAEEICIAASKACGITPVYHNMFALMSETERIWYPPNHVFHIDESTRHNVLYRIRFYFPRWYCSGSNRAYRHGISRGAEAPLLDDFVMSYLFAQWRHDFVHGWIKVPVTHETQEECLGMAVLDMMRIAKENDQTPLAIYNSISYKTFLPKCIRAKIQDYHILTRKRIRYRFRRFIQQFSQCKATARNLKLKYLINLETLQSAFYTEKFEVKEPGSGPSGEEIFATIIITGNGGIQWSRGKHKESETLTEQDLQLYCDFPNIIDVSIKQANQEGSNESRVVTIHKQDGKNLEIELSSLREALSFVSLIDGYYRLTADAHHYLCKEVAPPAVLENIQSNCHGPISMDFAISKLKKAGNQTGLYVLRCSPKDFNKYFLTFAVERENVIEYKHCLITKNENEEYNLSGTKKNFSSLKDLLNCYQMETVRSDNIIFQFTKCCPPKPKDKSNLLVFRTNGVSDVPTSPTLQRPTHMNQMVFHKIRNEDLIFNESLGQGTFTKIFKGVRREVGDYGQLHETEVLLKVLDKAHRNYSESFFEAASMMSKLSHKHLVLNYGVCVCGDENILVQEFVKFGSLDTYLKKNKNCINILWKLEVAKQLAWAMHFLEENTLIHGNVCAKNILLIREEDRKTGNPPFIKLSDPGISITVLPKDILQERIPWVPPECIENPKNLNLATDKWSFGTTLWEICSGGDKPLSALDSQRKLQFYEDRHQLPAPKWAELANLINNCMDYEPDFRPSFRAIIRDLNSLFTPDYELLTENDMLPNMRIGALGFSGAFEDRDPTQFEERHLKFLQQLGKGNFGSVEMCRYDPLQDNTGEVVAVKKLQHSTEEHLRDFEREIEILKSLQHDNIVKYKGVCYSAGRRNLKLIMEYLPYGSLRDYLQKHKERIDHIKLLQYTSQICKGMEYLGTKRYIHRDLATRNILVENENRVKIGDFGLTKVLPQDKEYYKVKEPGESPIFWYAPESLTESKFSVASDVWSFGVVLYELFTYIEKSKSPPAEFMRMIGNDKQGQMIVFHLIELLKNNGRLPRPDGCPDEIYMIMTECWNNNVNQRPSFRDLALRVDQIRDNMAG
Sequence of JAK1 (P23458 whole entry): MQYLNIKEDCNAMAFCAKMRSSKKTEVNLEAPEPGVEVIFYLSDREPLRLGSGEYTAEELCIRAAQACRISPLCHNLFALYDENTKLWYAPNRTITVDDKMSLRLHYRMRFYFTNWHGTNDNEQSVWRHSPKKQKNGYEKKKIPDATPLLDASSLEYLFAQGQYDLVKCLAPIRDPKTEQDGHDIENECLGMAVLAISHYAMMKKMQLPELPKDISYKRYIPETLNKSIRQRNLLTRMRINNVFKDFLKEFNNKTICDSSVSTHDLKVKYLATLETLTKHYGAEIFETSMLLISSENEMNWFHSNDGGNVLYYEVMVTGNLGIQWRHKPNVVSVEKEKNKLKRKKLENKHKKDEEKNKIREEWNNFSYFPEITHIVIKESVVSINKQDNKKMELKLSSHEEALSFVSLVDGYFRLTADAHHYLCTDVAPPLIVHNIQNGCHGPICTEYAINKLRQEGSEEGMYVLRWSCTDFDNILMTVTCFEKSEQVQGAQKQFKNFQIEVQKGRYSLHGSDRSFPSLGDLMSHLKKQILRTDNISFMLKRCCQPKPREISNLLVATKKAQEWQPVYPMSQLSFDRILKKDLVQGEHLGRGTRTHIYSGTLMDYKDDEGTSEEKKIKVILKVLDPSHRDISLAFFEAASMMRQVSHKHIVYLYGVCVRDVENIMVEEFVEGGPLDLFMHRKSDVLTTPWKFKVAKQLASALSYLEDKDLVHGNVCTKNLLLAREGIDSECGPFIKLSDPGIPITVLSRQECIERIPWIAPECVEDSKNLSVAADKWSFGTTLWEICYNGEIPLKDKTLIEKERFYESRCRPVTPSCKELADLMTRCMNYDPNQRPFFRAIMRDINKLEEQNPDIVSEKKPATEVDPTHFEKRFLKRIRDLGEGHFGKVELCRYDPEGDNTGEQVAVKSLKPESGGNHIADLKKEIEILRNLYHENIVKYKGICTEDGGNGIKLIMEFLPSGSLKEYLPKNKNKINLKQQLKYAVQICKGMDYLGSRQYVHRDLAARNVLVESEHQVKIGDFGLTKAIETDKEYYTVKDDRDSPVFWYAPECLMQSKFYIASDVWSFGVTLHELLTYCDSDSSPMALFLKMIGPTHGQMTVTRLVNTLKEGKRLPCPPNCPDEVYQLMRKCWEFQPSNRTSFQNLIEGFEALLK

binding site in co-crystal structure [1] | IC50 [5] | IC50 [6] | Compound | JAK2 pKi [2] | Tyk2 pKi [3] | Compound Remaining at 60 min (%) [4] | microsomal CLint at 1 µM [4] | Sulfate Appearance [4]
bind in the ATP binding site | – | – | CCc1cc(O)c(F)cc1-c1ccc2c(-c3nc4c([nH]3)CN(C(C)C)[C@H](C(=O)N3CC(N(C)C)C3)C4)n[nH]c2c1 [Compound D-1, (S)-(3-(dimethylamino)azetidin-1-yl)(2-(6-(2-ethyl-5-fluoro-4-hydroxyphenyl)-1H-indazol-3-yl)-5-isopropyl-4,5,6,7-tetrahydro-3H-imidazo[4,5-c]pyridin-6-yl)methanone] | – | – | – | – | –
– | – | – | CCc1cc(O)ccc1-c1ccc2c(-c3nc4c([nH]3)CN(C)[C@H](C(=O)N3CCN(C)C[C@@H]3C)C4)n[nH]c2c1 [Compound 3, ((S)-2,4-dimethylpiperazin-1-yl)((S)-2-(6-(2-ethyl-4-hydroxyphenyl)-1H-indazol-3-yl)-5-methyl-4,5,6,7-tetrahydro-3H-imidazo[4,5-c]pyridin-6-yl)methanone] | 10.4 | 9.3 | 86% | 2.6 µL/min/mg | Yes
– | 2.51 nM | 158 nM | CCc1cc(O)c(F)cc1-c1ccc2c(-c3nc4c([nH]3)CN(C(C)C)[C@H](C(=O)N3CC[C@H](N(C)C)C3)C4)n[nH]c2c1 [Compound C-6, reference compound] | – | – | 5% | 51.4 µL/min/mg | Yes
